Data set [1] has as its target Tyrosine-protein kinase ABL1 (Homo sapiens, UniProt P00519). The data set can be described thus: Selectivity interaction (TR-FRET binding assay) EUB0000644a ABL1. On the technique in general: TR-FRET usually uses a lanthanide donor and a delayed reading to cut background.
For data set [2], the target named is ALK tyrosine kinase receptor (Homo sapiens, UniProt Q9UM73). The data set can be described thus: Selectivity interaction (TR-FRET binding assay) EUB0000644a ALK.
Data set [3] deals with Aurora kinase B (Homo sapiens, UniProt Q96GD4). Description: Selectivity interaction (TR-FRET binding assay) EUB0000644a AURKB.
Chain of Aurora kinase B (Q96GD4 whole entry): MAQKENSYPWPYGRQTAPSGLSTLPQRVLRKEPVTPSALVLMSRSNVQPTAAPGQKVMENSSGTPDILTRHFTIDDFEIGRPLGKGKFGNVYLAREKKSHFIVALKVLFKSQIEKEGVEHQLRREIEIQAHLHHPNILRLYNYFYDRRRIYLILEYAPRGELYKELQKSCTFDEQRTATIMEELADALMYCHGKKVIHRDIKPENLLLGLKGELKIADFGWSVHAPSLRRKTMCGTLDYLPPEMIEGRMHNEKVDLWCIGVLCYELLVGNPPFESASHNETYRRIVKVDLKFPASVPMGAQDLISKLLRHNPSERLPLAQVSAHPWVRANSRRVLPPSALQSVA
Data set [4] has as its target Tyrosine-protein kinase BTK (Homo sapiens, UniProt Q06187). Description: Selectivity interaction (TR-FRET binding assay) EUB0000644a BTK.
Data set [5] deals with Cyclin-dependent kinase 11A (Homo sapiens, UniProt Q9UQ88). Description: Selectivity interaction (TR-FRET binding assay) EUB0000644a CDK11A.
Data set [6] concerns the target Cyclin-dependent kinase 2 (Homo sapiens, UniProt P24941). Description: Selectivity interaction (TR-FRET binding assay) EUB0000644a CDK2.
Data set [7] deals with CDK8/Cyclin C (Homo sapiens, UniProt P49336). Description: Selectivity interaction (TR-FRET binding assay) EUB0000644a CDK8. Format: protein-complex assay.
Data set [8] has as its target CDK7/Cyclin H/MNAT1 (Homo sapiens, UniProt P50613). Description: Selectivity interaction (TR-FRET binding assay) EUB0000644a […]. Format: protein-complex assay.
Data set [9] concerns the target Epidermal growth factor receptor (Homo sapiens, UniProt P00533). The data set can be described thus: Selectivity interaction (TR-FRET binding assay) EUB0000644a EGFR.
The target in data set [10] is G protein-coupled receptor kinase 5 (Homo sapiens, UniProt P34947). Description: Selectivity interaction (TR-FRET binding assay) EUB0000644a GRK5.
Data set [11] concerns the target Vascular endothelial growth factor receptor 2 (Homo sapiens, UniProt P35968). Description: Selectivity interaction (TR-FRET binding assay) EUB0000644a KDR.
For data set [12], the target named is Tyrosine-protein kinase Lck (Homo sapiens, UniProt P06239). Description: Selectivity interaction (TR-FRET binding assay) EUB0000644a LCK.
Data set [13] has as its target Mitogen-activated protein kinase 14 (Homo sapiens, UniProt Q16539). The data set can be described thus: Selectivity interaction (TR-FRET binding assay) EUB0000644a MAPK14.
The target in data set [14] is Mitogen-activated protein kinase 8 (Homo sapiens, UniProt P45983). Description: Selectivity interaction (TR-FRET binding assay) EUB0000644a MAPK8.
Data set [15] has as its target Hepatocyte growth factor receptor (Homo sapiens, UniProt P08581). Description: Selectivity interaction (TR-FRET binding assay) EUB0000644a MET.
Data set [16] concerns the target 5'-AMP-activated protein kinase catalytic subunit alpha-1 (Homo sapiens, UniProt Q13131). Description: Selectivity interaction (TR-FRET binding assay) EUB0000644a PRKAA1.
Data set [17] addresses cAMP-dependent protein kinase catalytic subunit alpha (Homo sapiens, UniProt P17612). The data set can be described thus: Selectivity interaction (TR-FRET binding assay) EUB0000644a PRKACA.
Data set [18] deals with Ribosomal protein S6 kinase alpha-3 (Homo sapiens, UniProt P51812). Description: Selectivity interaction (TR-FRET binding assay) EUB0000644a RPS6KA3.
Chain of Ribosomal protein S6 kinase alpha-3 (P51812 whole entry): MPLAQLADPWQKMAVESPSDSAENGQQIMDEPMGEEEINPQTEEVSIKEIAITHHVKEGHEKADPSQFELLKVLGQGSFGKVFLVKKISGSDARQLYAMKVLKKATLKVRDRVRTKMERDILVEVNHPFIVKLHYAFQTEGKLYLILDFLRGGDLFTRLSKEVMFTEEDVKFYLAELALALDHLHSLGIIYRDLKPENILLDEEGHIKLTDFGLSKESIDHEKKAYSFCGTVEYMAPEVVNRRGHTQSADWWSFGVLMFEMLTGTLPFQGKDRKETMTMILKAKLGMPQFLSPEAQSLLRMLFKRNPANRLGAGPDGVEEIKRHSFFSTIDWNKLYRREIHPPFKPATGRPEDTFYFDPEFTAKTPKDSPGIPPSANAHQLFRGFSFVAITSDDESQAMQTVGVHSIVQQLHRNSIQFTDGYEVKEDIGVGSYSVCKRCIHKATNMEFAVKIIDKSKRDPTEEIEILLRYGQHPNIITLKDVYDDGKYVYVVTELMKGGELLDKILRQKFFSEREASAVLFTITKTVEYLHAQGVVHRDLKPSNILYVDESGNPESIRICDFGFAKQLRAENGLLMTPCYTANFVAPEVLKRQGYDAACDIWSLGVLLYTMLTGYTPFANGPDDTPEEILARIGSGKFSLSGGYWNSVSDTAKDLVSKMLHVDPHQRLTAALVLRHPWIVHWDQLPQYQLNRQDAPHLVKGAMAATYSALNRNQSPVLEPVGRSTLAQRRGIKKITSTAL
The target of data set [19] is Tyrosine-protein kinase SYK (Homo sapiens, UniProt P43405). Description: Selectivity interaction (TR-FRET binding assay) EUB0000644a SYK.
Data set [20] concerns the target Voltage-dependent L-type calcium channel subunit alpha-1C (Homo sapiens, UniProt Q13936). The data set can be described thus: Selectivity interaction (CEREP selectivity screen) EUB0000318b CACNA1C. As to conditions: at 10 µM.
Data set [21] concerns the target T1, 4-aminobutyrate aminotransferase, mitochondrial (Homo sapiens, UniProt P80404). Description: (§1) Selectivity interaction (GPCR panel (PDSP screen)) EUB0000318b ABAT.
Data set [22] deals with T1, 4-aminobutyrate aminotransferase, mitochondrial. The description is as §1. As to conditions: at 10 µM.
The target in data set [23] is 5-hydroxytryptamine receptor 2A (Homo sapiens, UniProt P28223). Description: Selectivity interaction (CEREP selectivity screen) EUB0000318b HTR2A. As to conditions: at 10 µM.
Data set [24] has as its target T2, Mitogen-activated protein kinase kinase kinase 5 (Homo sapiens) (UniProt Q99683).
T2 sequence (whole entry): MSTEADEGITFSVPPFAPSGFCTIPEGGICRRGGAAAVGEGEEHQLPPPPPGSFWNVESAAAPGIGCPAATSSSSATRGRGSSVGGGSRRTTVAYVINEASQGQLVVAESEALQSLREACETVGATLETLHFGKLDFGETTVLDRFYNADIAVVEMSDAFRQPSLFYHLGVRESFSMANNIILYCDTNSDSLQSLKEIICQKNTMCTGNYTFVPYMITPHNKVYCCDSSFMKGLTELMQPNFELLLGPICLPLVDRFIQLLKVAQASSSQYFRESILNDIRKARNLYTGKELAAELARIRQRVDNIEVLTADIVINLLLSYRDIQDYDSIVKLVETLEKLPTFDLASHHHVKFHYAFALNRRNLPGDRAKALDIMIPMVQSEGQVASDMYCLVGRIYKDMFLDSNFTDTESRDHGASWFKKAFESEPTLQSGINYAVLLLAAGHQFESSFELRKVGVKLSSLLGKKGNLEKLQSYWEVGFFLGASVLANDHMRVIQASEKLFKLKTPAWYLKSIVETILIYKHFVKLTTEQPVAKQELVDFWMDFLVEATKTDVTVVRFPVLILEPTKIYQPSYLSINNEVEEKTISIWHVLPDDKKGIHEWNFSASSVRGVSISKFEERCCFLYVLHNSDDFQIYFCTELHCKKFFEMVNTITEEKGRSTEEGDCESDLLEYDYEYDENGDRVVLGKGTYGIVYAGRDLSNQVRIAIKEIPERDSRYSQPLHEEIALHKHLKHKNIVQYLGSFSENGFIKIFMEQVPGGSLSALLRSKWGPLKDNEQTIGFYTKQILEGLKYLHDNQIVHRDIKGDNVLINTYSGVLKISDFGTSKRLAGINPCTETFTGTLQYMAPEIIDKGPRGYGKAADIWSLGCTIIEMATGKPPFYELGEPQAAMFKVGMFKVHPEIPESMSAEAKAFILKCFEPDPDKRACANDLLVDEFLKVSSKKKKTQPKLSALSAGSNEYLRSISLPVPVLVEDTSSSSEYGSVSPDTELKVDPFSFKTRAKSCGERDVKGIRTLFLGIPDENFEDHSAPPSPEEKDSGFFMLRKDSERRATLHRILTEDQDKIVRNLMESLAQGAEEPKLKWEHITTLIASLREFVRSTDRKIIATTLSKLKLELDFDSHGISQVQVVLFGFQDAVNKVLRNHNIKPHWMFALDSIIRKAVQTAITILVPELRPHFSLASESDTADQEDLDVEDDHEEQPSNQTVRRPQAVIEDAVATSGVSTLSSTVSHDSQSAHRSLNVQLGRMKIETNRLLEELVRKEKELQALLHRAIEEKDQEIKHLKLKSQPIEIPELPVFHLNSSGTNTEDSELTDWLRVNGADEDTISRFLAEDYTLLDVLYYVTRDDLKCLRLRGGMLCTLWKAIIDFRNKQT
The data set can be described thus: Selectivity interaction (KinomeScan (DiscoverX)) EUB0000318b MAP3K5. The note with it: at 1 µM.

Data set [25] has as its target T3, Serine/threonine-protein kinase Nek1 (Homo sapiens) (UniProt Q96PY6).
T3 sequence (whole entry): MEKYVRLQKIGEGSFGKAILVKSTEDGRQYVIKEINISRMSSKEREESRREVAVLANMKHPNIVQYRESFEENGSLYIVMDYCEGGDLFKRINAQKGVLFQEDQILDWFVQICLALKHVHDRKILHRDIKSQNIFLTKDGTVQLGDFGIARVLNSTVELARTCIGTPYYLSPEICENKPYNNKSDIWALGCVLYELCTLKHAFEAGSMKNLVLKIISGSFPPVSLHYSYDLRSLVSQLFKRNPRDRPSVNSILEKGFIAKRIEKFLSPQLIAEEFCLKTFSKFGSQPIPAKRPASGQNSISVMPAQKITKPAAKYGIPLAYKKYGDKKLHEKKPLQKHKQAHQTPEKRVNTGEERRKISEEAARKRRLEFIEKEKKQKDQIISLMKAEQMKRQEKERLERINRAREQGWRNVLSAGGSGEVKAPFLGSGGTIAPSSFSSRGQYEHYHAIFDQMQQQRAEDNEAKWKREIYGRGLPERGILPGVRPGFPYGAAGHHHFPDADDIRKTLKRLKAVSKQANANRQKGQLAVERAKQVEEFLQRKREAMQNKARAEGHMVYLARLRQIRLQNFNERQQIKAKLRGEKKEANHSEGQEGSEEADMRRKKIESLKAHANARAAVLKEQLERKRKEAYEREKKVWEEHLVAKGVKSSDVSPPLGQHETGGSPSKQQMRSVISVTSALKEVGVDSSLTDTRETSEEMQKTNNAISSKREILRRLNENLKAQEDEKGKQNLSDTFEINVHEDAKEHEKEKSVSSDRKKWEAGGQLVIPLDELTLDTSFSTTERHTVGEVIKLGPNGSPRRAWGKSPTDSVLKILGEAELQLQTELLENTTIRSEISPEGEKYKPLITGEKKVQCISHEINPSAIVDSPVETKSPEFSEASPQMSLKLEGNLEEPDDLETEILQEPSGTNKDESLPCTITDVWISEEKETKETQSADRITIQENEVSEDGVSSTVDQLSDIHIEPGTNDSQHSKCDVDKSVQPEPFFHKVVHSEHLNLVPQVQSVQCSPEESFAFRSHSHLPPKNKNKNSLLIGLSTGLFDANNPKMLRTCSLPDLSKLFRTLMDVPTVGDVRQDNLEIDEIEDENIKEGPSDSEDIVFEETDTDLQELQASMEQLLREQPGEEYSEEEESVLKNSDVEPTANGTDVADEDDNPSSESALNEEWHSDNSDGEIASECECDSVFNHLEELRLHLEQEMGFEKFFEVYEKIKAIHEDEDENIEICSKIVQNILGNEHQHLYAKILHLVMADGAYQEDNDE
The data set can be described thus: Selectivity interaction (KinomeScan (DiscoverX)) EUB0000318b NEK1. The note with it: at 1 µM.

Data set [26] deals with Sodium channel regulatory subunit beta-1 (Homo sapiens) (UniProt Q07699). The data set can be described thus: Selectivity interaction (CEREP selectivity screen) EUB0000318b SCN1B. As to conditions: at 10 µM.
Chain of Sodium channel regulatory subunit beta-1 (Homo sapiens) (Q07699 whole entry): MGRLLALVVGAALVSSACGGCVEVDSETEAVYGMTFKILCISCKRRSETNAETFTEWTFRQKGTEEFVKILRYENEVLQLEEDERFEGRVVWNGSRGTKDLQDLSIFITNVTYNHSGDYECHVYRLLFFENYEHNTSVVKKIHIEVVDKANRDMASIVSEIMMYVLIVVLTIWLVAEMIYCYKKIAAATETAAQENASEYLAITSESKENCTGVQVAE
Data set [27] addresses Sigma non-opioid intracellular receptor 1 (Homo sapiens) (UniProt Q99720). The data set can be described thus: Selectivity interaction (GPCR panel (PDSP screen)) EUB0000318b SIGMAR1. The note with it: at 10 µM.
In data set [28] the target is Sodium-dependent noradrenaline transporter (Homo sapiens, UniProt P23975). Description: Selectivity interaction (CEREP selectivity screen) EUB0000318b SLC6A2. As to conditions: at 10 µM.
Chain of Sodium-dependent noradrenaline transporter (P23975 whole entry): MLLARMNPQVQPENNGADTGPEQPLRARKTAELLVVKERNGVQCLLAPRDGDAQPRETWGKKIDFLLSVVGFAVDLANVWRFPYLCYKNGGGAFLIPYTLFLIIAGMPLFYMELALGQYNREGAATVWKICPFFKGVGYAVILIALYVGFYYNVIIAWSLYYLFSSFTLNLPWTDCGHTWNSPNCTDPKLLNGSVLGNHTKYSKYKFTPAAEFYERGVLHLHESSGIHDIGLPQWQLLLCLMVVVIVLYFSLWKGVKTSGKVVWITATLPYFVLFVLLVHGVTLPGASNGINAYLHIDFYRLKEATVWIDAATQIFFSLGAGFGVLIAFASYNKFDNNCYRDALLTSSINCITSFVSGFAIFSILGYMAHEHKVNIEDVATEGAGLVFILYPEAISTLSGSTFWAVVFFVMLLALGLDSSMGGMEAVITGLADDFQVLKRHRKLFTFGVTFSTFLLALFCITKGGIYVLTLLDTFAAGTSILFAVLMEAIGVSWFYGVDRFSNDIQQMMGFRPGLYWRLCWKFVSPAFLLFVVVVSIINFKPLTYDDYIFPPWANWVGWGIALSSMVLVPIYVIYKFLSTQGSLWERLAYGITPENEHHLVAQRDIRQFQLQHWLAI

T1 sequence (P80404 whole entry): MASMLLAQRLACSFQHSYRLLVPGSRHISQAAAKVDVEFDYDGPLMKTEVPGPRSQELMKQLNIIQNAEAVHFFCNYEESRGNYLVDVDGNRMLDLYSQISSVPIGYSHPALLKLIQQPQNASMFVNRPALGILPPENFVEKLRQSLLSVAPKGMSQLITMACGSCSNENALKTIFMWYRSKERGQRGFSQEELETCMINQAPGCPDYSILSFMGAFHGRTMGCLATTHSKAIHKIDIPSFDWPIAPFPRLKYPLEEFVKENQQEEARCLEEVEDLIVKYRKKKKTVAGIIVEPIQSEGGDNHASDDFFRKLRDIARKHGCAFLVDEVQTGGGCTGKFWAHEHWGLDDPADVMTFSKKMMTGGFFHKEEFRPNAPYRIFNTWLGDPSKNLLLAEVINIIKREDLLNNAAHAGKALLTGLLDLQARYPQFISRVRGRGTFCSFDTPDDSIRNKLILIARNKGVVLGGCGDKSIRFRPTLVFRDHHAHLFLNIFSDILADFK
Chain of Tyrosine-protein kinase ABL1 (P00519 whole entry): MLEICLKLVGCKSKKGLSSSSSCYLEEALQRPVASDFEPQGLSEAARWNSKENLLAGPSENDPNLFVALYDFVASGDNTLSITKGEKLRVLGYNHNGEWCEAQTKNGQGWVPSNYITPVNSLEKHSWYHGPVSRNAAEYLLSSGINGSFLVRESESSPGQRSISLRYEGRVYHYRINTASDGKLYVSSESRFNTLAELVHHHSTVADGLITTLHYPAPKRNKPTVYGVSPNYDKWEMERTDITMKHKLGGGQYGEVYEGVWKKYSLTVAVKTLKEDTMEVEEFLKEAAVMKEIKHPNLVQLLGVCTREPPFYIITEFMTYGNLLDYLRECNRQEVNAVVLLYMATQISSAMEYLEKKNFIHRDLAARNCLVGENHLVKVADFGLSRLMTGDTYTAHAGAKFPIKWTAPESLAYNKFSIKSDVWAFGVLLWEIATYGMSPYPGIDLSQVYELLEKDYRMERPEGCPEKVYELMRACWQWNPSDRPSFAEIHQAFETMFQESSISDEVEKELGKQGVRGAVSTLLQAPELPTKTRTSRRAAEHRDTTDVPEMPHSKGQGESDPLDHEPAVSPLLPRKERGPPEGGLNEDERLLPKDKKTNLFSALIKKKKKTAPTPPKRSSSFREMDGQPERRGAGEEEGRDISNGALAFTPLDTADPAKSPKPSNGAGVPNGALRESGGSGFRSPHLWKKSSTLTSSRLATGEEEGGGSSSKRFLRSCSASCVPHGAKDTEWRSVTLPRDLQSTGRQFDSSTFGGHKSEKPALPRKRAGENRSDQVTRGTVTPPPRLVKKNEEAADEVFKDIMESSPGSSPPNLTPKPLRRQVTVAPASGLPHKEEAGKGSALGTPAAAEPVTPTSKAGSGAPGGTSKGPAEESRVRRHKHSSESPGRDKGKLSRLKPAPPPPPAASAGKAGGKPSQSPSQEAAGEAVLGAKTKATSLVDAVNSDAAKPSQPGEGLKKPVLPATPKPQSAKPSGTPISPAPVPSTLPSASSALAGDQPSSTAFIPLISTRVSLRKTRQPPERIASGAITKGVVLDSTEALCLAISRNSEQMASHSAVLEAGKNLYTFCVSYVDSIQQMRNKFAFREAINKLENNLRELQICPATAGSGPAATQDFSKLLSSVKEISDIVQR
Chain of Hepatocyte growth factor receptor (P08581 whole entry): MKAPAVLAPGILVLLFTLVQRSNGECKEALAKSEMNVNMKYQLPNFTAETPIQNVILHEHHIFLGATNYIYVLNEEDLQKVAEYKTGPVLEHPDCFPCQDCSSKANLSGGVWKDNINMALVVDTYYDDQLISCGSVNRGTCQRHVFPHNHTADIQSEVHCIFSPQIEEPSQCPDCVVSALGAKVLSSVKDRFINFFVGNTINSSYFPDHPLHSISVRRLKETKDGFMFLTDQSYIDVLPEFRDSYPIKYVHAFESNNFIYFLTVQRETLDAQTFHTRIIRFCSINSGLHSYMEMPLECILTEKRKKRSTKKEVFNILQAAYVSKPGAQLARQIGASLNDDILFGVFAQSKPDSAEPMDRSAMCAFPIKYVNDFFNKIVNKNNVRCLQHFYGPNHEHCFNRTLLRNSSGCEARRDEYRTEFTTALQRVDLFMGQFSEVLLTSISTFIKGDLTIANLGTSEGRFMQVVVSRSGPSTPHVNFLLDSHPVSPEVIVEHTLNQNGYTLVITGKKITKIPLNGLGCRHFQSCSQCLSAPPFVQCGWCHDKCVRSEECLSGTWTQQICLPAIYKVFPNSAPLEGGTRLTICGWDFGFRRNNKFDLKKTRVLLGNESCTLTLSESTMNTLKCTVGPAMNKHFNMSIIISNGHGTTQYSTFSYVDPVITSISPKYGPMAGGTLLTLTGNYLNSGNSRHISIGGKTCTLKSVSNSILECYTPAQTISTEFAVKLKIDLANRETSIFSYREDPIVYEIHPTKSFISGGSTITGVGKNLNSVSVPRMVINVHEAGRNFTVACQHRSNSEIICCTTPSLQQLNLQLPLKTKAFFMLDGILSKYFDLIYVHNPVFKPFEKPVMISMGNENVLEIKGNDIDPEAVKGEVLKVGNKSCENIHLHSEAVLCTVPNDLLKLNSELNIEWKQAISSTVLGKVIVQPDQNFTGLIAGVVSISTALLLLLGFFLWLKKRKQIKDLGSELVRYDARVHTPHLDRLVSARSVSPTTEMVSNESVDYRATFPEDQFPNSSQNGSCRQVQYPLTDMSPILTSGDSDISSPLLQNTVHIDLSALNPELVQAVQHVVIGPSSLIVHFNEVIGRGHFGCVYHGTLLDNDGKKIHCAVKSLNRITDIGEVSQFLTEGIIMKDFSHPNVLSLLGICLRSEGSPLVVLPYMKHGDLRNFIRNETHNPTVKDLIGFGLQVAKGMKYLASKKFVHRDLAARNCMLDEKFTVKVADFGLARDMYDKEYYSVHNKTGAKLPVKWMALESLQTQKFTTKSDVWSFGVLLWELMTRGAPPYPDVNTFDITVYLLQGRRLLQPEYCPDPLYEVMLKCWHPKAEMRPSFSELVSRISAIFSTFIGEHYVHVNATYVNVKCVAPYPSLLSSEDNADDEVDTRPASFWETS

Usually IC50 stands for the concentration that gives 50% inhibition. In the case of `CC[C@@H]1CN(C(=O)NCC(F)(F)F)C[C@@H]1c1cnc2cnc3[nH]ccc3n12` [UPADACITINIB], the IC50 in data set [1] is more than 10 µM; in data set [2], 5.5 µM; in data set [3], 5.5 µM; in [4] it was more than 10 µM; in [5] it was more than 10 µM; in [6], more than 10 µM. Besides, the IC50 is more than 10 µM in data set [7]; more than 10 µM in data set [8]; more than 10 µM in data set [9]; 7.9 µM in data set [10]; 1500 nM in [11]; 10 µM in data set [12]. For the same compound, the IC50 was more than 10 µM in data set [13]; more than 10 µM in data set [14]; more than 10 µM in [15]; 4.5 µM in [16]; more than 10 µM in [17]; 9.6 µM in data set [18]. Besides, the IC50 in data set [19] was more than 10 µM.
The term Ki denotes a measure of affinity in units of concentration, obtained from inhibition or displacement. Read a high Ki as weaker binding. In the case of `O=C(NC[C@@H]1[C@H]2CN(C(=O)OCc3cc(C(F)(F)F)cc(C(F)(F)F)c3)C[C@@H]12)c1ccc2[nH]nnc2c1` [BI 2545], the “% of inhibition” value in [20] was determined as 80%; in data set [22] it was 63.7%; in data set [23], 55%; in data set [26], 66%; in data set [27] it was 51.2%; in [28], 61%. Further, in [21], the Ki was 2560 nM. Also, the % of control is 13% in data set [24] and 44% in data set [25].

The record behind these values is ChEMBL document CHEMBL5465560, “Selectivity Literature for EUbOPEN Chemogenomic Library” (2024).
